Test results taken from US4812567A, “Polycyclic spiroimides with psychotropic activity” (American Home Products Corporation, priority 1986, dated 1989).
Where a name gives a salt, the structure may show the parent alone.

Tested on: conditioned avoidance (shelf-jump response)
Assay: conditioned avoidance (shelf-jump response) test in rats
Format: in vivo, Male CD rats
Excerpt: A test designed to determine the potential antipsychotic activity of the compounds of this invention is the conditioned avoidance (shelf-jump response) test. Male CD rats (Charles River) maintained at approximately 400-450 gm body weight are used. […] A moveable wall, controlled by a motor, determines whether the rat has access to the shelf at any time during the experiment. The experimental chamber also contains a house light and sonalert. A steel grid floor in the main chamber is wired for presentation of electric shock. Each trial consists of a […]-second warning tone (conditioned stimulus), continuing for an additional fifteen seconds accompanied by electric shock, (unconditioned stimulus). A response (jumping onto the exposed shelf of the upper chamber) occurring during the initial fifteen-second warning tone is considered an avoidance response, while a response occurring during shock delivery is considered an escape response. Trials are presented on a fixed interval schedule of one minute. The session consists of thirty-six trials. Animals are run twice weekly with control sessions always preceding a drug run, and with at least one day intervening. Compounds are administered i.p. or p.o. at appropriate pre-treatment times to a minimum of five rats at each dose level over a range of doses. […] Response counts are summed over all subjects at a given dose. […] This number is expressed as a percentage of the total trials. […] Potential antipsychotic compounds suppress avoidance responding and increase escape responding.

O=C1CC2(CCC3CCC2C3)C(=O)N1CCCCN1CCN(c2ncccn2)CC1 (centres unmarked) [Example 1, 1'-[4-[4-(2-Pyrimidinyl)-1-piperazinyl]butyl]spiro[bicyclo[3.2.1]octane-2,3'-pyrrolidine]-2',5'-dione, dihydrochloride, hemihydrate] was tested. Which Active at (i.p.) did it give?
Its Active at is 40 mg/kg.

With O=C1CC2(CCCC2)CC(=O)N1CCCCN1CCN(c2cncc(Cl)n2)CC1 [Example 4, 8-[4-[4-(6-Chloro-2-pyrazinyl)-1-piperazinyl]butyl]-8-azaspiro[4,5]decane-7,9-dione dihydrochloride, hydrate] as the compound, how does the Active at (orally administered) read?
The Active at was 40 mg/kg.

How did the Active at (i.p.) turn out when O=C1CC2(CCCC2)CC(=O)N1CCCCN1CCN(c2nccnc2Cl)CC1 [Example 5, 8-[4-[4-(3-Chloro-2-pyrazinyl)-1-piperazinyl]butyl]-8-azaspiro[4,5]decane-7,9-dione dihydrochloride, hemihydrate] was run?
Its Active at is 40 mg/kg.

With O=C1CC2(CCCC2)CC(=O)N1CCCCN1CCN(c2ccc(Cl)nn2)CC1 [Example 6, 8-[4-[4-(6-Chloro-3-pyridazinyl]-1-piperazinyl]-8-azaspiro[4,5]decane-7,9-dione dihydrochloride] as the compound, how does the Active at (i.p.) read?
Its Active at is 40 mg/kg.

How did the Active at (i.p.) turn out when “Octahydro-1'-[4-[4-(2-Pyrimidinyl)-1-piperazinyl]butyl]spiro[4,7-methano-5H-indene-5,3'-pyrrolidine]-2',5'-dione, dihydrochloride [Example 2]” was run?
The Active at was 40 mg/kg.
